From ChEMBL document CHEMBL1944562, “Design, synthesis of some new (2-aminothiazol-4-yl)methylester derivatives as possible antimicrobial and antitubercular agents” (2012)
Values after ≈ are worked out from the molar mass of the structure shown.

System: Mycobacterium tuberculosis
Assay: Antitubercular activity against Multidrug-resistant Mycobacterium tuberculosis after 7 days by resazurin assay
Format: functional
Settings: 168 h

Row | SMILES | MIC [µg/mL]
1 | Nc1nc(COC(=O)C2(c3ccc(Cl)cc3)CC2)cs1 | > 50
2 | Nc1nc(COC(=O)c2cccc([N+](=O)[O-])c2Cl)cs1 | 6.25 (≈ 19.9 µM)
3 | Nc1nc(COC(=O)Cc2ccccc2OC(F)(F)F)cs1 | > 50
4 | Nc1nc(COC(=O)c2c(F)cccc2Cl)cs1 | 6.25 (≈ 21.8 µM)
5 | Nc1nc(COC(=O)c2c(F)cc(F)cc2F)cs1 | 25 (≈ 86.7 µM)
6 | Nc1nc(COC(=O)c2ccc([N+](=O)[O-])cc2)cs1 | 1.25 (≈ 4.48 µM)
7 | Nc1nc(COC(=O)Cc2cccc(C(F)(F)F)c2)cs1 | 6.25 (≈ 19.8 µM)
8 | CO[C@H]1/C=C/O[C@@]2(C)Oc3c(C)c(O)c4c(O)c(c(/C=N/N5CCN(C)CC5)c(O)c4c3C2=O)NC(=O)/C(C)=C\C=C\[C@H](C)[C@H](O)[C@@H](C)[C@@H](O)[C@@H](C)[C@H](OC(C)=O)[C@@H]1C [RIFAMPIN] | 25 (≈ 30.4 µM)
9 | Nc1nc(COC(=O)c2cc(F)cc(C(F)(F)F)c2)cs1 | > 50
10 | NNC(=O)c1ccncc1 [ISONIAZID] | 12.5 (≈ 91.1 µM)
11 | Nc1nc(COC(=O)c2cccs2)cs1 | > 50
12 | N#CCCc1cccc(C(=O)OCc2csc(N)n2)c1 | 6.25 (≈ 21.8 µM)
13 | Nc1nc(COC(=O)c2c(Cl)cc(Cl)cc2Cl)cs1 | > 50
14 | Nc1nc(COC(=O)c2ccccc2[N+](=O)[O-])cs1 | 12.5 (≈ 44.8 µM)
15 | N#Cc1ccccc1C(=O)OCc1csc(N)n1 | > 50
16 | N#Cc1cccc(C(=O)OCc2csc(N)n2)n1 | > 50
17 | Nc1nc(COC(=O)c2ccc3ccccc3c2)cs1 | > 50
18 | Nc1nc(COC(=O)c2ccc(Br)cc2)cs1 | 2.5 (≈ 7.98 µM)
